Test results: patent US20220296595A1, “CDK INHIBITORS” (QILU REGOR THERAPEUTICS INC., priority 2019, published 2022)
Read-outs that look alike come from different tables or passages of the source.

Tests used:
CDK4/CyclinD1 = target: T1, CDK4/CyclinD1 (Homo sapiens, UniProt P11802); test: Assay for inhibition of CDK4/CyclinD1 (Caliper microfluidic kinase assay); type: biochemical
T1 construct: purchased Thermofisher PR8064A
How it was run: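 Caliper microfluidic mobility-shift assay tracking phosphorylation of 1 μM FL-34 peptide by 1 nM CDK4/CyclinD1 with 200 μM ATP in HEPES pH 7.5 buffer with 10 mM MgCl2. Reaction ran 3 h at room temperature, was stopped with EDTA, and IC50 came from a 4-parameter sigmoidal fit.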

CDK2/CyclinE1 = target: T2, CDK2/CyclinE1 (Homo sapiens, UniProt P24941); test: Assay for inhibition of CDK2/CyclinE1 (Caliper microfluidic kinase assay); type: biochemical
T2 construct: purchased SignalChem C29-18G
How it was run: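 Caliper microfluidic mobility-shift assay: 5 nM CDK2/CyclinE1, 100 μM ATP, 5 μM FL-18 peptide (5-FAM-QSPKKG-NH2) in pH 7.5 HEPES buffer with MgCl2, DTT, BSA, Triton X-100. Incubated 3 hours at room temperature, EDTA-stopped; IC50 from 4-parameter sigmoidal fit.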

T47D breast cancer cells = test: Anti-proliferation assay in T47D cell (Cyquant, day 6); type: cell-based, human; settings: anti-proliferation, T47D cells, read-out: T47D IC50
Text: T47D is a human breast cancer cell line commonly used in biomedical research involving the hormonal expression of cancer cells. T47D cells are distinct from other human breast cancer cells in that their progesterone receptors (PR) are not regulated by estradiol, a hormone that is abundant within the cells themselves. T47D cells have been employed in studies of the effects of progesterone on breast cancer and the corresponding transcriptional regulation caused by introduced drugs. The cells have been noted to be extremely resistant to estrogens and antiestrogens.
T47D breast cancer cells from American Type Culture Collection (ATCC, HTB-133) were plated at 3000 cells/well in 96-well plates, and were incubated in RPMI 1640 medium (Gibco, 31800105) with 10% Fetal Bovine Serum (FBS, Biowest, FB-1058) at 37° C., 5% CO2. After overnight incubation, baseline values were measured of the samples from one plate using Cyquant reagent (Invitrogen, C35011) following manufacturer's recommendations. Cells were incubated with the detection reagent for 1 hour at 37° C., and then the fluorescence was measured with excitation at 485 nm and emission at 535 nm using Spectra Max M5 (Molecular Devices, HD-4HYSG3196). Other plates were dosed with compounds at a ten-point dose concentration from 10 μM to 0.51 nM in a 3-fold dilution scheme. On day 6 after compound addition, Cyquant reagent was added and the fluorescence was measured using Spectra Max M5. The IC50 values of the test compound's anti-proliferation activity were determined from the baseline subtracted viability readout curve using Xlfit5/GraphPad Prism 5 software.

CDK6/CyclinD3 = target: T3, CDK6/CyclinD3 (Homo sapiens, UniProt Q00534); test: Assay for inhibition of CDK6/CyclinD3 (Caliper microfluidic kinase assay); type: biochemical
T3 construct: purchased Carna 04-107
T3 sequence (Q00534 whole entry): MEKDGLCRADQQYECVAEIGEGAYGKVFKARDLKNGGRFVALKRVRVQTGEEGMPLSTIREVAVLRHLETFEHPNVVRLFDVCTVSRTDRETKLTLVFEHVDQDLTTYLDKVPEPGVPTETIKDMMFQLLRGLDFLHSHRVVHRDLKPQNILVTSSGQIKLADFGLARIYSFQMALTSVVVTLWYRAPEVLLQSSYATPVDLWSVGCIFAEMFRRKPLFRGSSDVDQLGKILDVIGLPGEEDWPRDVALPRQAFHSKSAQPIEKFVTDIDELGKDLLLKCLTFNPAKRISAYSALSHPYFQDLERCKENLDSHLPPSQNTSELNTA
T3 sequence (P30281 whole entry partner): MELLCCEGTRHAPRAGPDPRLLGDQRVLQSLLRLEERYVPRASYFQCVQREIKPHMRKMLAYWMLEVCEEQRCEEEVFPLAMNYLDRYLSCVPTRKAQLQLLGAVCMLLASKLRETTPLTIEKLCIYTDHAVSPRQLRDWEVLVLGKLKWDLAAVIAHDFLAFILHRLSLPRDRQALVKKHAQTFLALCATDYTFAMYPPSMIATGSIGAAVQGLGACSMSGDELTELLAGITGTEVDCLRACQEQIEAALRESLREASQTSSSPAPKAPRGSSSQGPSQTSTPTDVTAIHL
Method: The CDK6 enzyme assay for IC50 determination was performed as follows. Microfluidic kinase detection technology (Caliper) was used to monitor the phosphorylation of peptide substrate by CDK6/CyclinD3. The total reaction volume is 15 μL containing buffer A (100 mM HEPES (pH 7.5), 0.1% BSA, 0.01% Triton X-100, 1 mM DTT, 10 mM MgCl2, 10 μM Sodium Orthovanadate, 10 μM Beta-Glycerophosphate), 300 μM ATP, 2 nM CDK6/CyclinD3 (Carna, 04-107), 1 μM FL-34 (5-FAM-[…]), and the test compound at appropriate dilutions in DMSO. All components were added to the 384-well plate (Corning, 4514), and incubated at Room Temperature for 3 hours. The reaction was terminated by addition of 15 μL Stop Buffer (180 mM HEPES (pH 7.5), 20 mM EDTA, Coating-3 reagent (PerkinElmer, 760050)). The plate was then loaded on Caliper EZ Reader (EZ Reader II, PerkinElmer, HD-4HYSG2772), and the reaction mixtures including substrate and product were sipped into the microfluidic chip for separation and detection. The IC50 values of the test compound were determined by fitting the inhibition curves by 4 parameter sigmoidal dose-response model using the Xlfit5/GraphPad Prism 5 software.

[1] = CDK2/CyclinE1, 100 μM ATP, read-out: CDK2 IC50
[2] = CDK2/CyclinE1, read-out: CDK2 IC50

T1 sequence (P11802 whole entry): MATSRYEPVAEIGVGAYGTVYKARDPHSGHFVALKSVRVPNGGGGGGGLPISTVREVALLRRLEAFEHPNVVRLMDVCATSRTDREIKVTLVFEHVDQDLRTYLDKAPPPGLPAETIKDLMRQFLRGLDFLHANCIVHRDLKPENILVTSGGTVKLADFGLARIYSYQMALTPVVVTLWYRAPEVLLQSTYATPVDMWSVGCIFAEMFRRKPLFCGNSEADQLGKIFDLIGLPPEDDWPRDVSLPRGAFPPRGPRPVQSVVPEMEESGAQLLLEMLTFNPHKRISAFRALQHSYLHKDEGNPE
T1 sequence (P24385 whole entry partner): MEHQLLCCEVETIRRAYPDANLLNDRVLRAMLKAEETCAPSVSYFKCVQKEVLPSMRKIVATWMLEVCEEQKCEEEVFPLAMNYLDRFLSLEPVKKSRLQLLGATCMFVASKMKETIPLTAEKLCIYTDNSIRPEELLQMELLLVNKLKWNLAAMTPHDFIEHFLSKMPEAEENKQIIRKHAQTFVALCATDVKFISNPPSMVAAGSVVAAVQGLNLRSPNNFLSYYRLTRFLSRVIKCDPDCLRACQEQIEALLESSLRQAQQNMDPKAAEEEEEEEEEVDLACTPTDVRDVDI

Structure (SMILES)	IC50 (CDK4/CyclinD1; CDK4/CyclinD1, 200 μM ATP)	IC50 (CDK2/CyclinE1; [1])	IC50 (T47D breast cancer cells)	IC50 (CDK6/CyclinD3; CDK6/CyclinD3, 300 μM ATP)	IC50 (T47D breast cancer cells; Homo sapiens, T47D)	IC50 (CDK4/CyclinD1; CDK4/CyclinD1)	IC50 (CDK2/CyclinE1; [2])	IC50 (CDK6/CyclinD3; CDK6/CyclinD3)	IC50 (CDK2/CyclinE1)
CCN1CCN(Cc2ccc(Nc3ncc(F)c(-c4cc5c(C(C)C)n(C)nc5cn4)n3)nc2)CC1 [Synthetic Example 58]	100 to 1000 nM	–	–	> 1000 nM	> 1000 nM	–	–	–	–
CC(C)c1cnn2ccc(-c3nc(Nc4ccc(N5CCOCC5)cn4)ncc3F)cc12 [compound 13]	10 to 100 nM	–	–	10 to 100 nM	100 to 500 nM	–	–	–	–
CC(C)c1cnn2ccc(-c3nc(Nc4ccc(CN5CCOCC5=O)cn4)ncc3F)cc12 [compound 15]	10 to 100 nM	100 to 1000 nM	–	100 to 1000 nM	500 to 1000 nM	–	–	–	–
CC(C)c1cnn2ccc(-c3nc(Nc4ccc(N5CCOCC5=O)c(C(F)(F)F)c4)ncc3F)cc12 [compound 23]	10 to 100 nM	–	–	10 to 100 nM	500 to 1000 nM	–	–	–	–
COc1nc(-c2nc(Nc3ccc(N4CCOCC4=O)cn3)ncc2C)cc2c1nc(C)n2C(C)C [compound 75]	–	–	–	–	< 100 nM	< 10 nM	100 to 1000 nM	10 to 100 nM	–
COc1nc(-c2nc(NC3CCN(S(C)(=O)=O)CC3)ncc2F)cc2c1nc(C)n2C(C)C [compound 102]	–	–	–	–	–	10 to 100 nM	100 to 1000 nM	100 to 1000 nM	–
COc1nc(-c2nc(Nc3ccc(N4CCNCC4=O)cn3)ncc2F)cc2c1nc(C)n2C(C)C [compound 107]	< 10 nM	> 1000 nM	–	10 to 100 nM	100 to 500 nM	–	–	–	–
COc1nc(-c2nc(Nc3ccc(N4CCN(CC(F)(F)F)CC4=O)cn3)ncc2F)cc2c1nc(C)n2C(C)C [compound 124]	< 10 nM	> 1000 nM	–	10 to 100 nM	100 to 500 nM	–	–	–	–
COc1nc(-c2nc(Nc3ccc(N4CCN(C5CCNCC5)CC4=O)cn3)ncc2F)cc2c1nc(C)n2C(C)C [compound 139]	< 10 nM	> 1000 nM	–	< 10 nM	–	–	–	–	–
Cc1nn2ccc(-c3ccnc(Nc4ccc(N5CCC(N(C)C)CC5=O)cc4)n3)cc2c1C(C)C (centres unmarked) [compound 177]	< 10 nM	< 10 nM	–	< 10 nM	–	–	–	–	–
CC(C)c1cnn2ccc(-c3ccnc(Nc4ccc5c(c4)CS(=O)(=O)C5)n3)cc12 [compound 179]	< 10 nM	< 10 nM	–	< 10 nM	–	–	–	–	–
CNC1CCN(C(=O)c2ccc(Nc3nccc(-c4ccn5ncc(C(C)C)c5c4)n3)cc2)C1 (centres unmarked) [compound 189]	< 10 nM	–	–	< 10 nM	–	–	–	–	< 10 nM
CC(C)(C)c1cnn2ccc(-c3ccnc(Nc4ccc(N5CCNCC5=O)cc4F)n3)cc12 [compound 225]	< 10 nM	< 10 nM	–	10 to 100 nM	–	–	–	–	–

Continued, in another order:

IC50 (CDK4/CyclinD1; CDK4/CyclinD1, 200 μM ATP)	IC50 (CDK2/CyclinE1; [1])	IC50 (T47D breast cancer cells)	IC50 (CDK6/CyclinD3; CDK6/CyclinD3, 300 μM ATP)	IC50 (T47D breast cancer cells; Homo sapiens, T47D)	IC50 (CDK4/CyclinD1; CDK4/CyclinD1)	IC50 (CDK2/CyclinE1; [2])	IC50 (CDK6/CyclinD3; CDK6/CyclinD3)	Structure (SMILES)	IC50 (CDK2/CyclinE1)
< 10 nM	< 10 nM	< 100 nM	< 10 nM	–	–	–	–	CC(C)c1cnn2ccc(-c3ccnc(Nc4ccc(N5CCC(N(C)C)CC5)cn4)n3)cc12 (single isomer, unassigned) [Synthetic Example 161, N-[5-[4-(dimethylamino)-1-piperidyl]-2-pyridyl]-4-(3-isopropylpyrazolo[1,5-a]pyridin-5-yl)pyrimidin-2-amine]	–
10 to 100 nM	10 to 100 nM	–	100 to 1000 nM	100 to 500 nM	–	–	–	CC(C)c1cnn2ccc(-c3nc(NC4CCN(S(C)(=O)=O)CC4)ncc3F)cc12 [Synthetic Example 10]	–
< 10 nM	< 10 nM	–	10 to 100 nM	< 100 nM	–	–	–	CC(C)c1cnn2ccc(-c3nc(Nc4ccc(N5CCOCC5=O)cn4)ncc3F)cc12 [compound 2]	–
10 to 100 nM	> 1000 nM	–	100 to 1000 nM	> 1000 nM	–	–	–	CC(C)c1cnn2ccc(-c3nc(Nc4ccc(CN5CCN6CCCC6C5)cn4)ncc3F)cc12 (centres unmarked) [compound 8]	–
< 10 nM	100 to 1000 nM	–	10 to 100 nM	100 to 500 nM	–	–	–	CC(C)c1cnn2ccc(-c3nc(Nc4ccc(N5CCC(N(C)C)CC5)cn4)ncc3F)cc12 [compound 9]	–
10 to 100 nM	100 to 1000 nM	–	10 to 100 nM	100 to 500 nM	–	–	–	Cc1nc(Nc2ncc(F)c(-c3ccn4ncc(C(C)C)c4c3)n2)ccc1C(=O)N1CCC(NC2CC2)CC1 [compound 11]	–
10 to 100 nM	–	–	100 to 1000 nM	500 to 1000 nM	–	–	–	O=C1COCCN1c1ccc(Nc2ncc(F)c(-c3ccn4ncc(C5CCOCC5)c4c3)n2)nc1 [compound 18]	–
–	–	–	–	100 to 500 nM	10 to 100 nM	> 1000 nM	10 to 100 nM	COc1nc(-c2nc(Nc3ccc(C(=O)N4CCC(NC5CC5)CC4)c(C)n3)ncc2F)cc2c1nc(C)n2C(C)C [compound 86]	–
–	–	–	–	100 to 500 nM	< 10 nM	–	10 to 100 nM	CCN1CCN(Cc2ccc(Nc3ncc(F)c(-c4cc5c(ncn5C(C)C)c(OC)n4)n3)nc2)CC1 [compound 87]	–
–	–	–	–	–	10 to 100 nM	> 1000 nM	10 to 100 nM	CCN1CCN(Cc2ccc(Nc3ncc(F)c(-c4cc5c(nc(C)n5C(C)C)c(OC)n4)n3)nc2)CC1 [compound 95]	–
10 to 100 nM	10 to 100 nM	–	10 to 100 nM	–	–	–	–	CC(C)c1cnn2ccc(-c3ccnc(Nc4ccc(N5CCC(O)CC5=O)cn4)n3)cc12 (centres unmarked) [compound 183]	–
< 10 nM	< 10 nM	–	10 to 100 nM	–	–	–	–	CC(C)c1cnn2ccc(-c3ccnc(Nc4ccc(N5CCC(C)(N)CC5=O)cc4F)n3)cc12 (centres unmarked) [compound 213]	–
< 10 nM	< 10 nM	–	< 10 nM	< 100 nM	–	–	–	CNC1CCCN(c2ccc(Nc3nccc(-c4ccn5ncc(C(C)C)c5c4)n3)cc2)C1=O (centres unmarked) [compound 215]	–
< 10 nM	10 to 100 nM	–	< 10 nM	< 100 nM	–	–	–	CNC1CCCN(c2ccc(Nc3nccc(-c4ccn5nc(C)c(C(C)C)c5c4)n3)cc2)C1=O (centres unmarked) [compound 217]	–
< 10 nM	< 10 nM	–	10 to 100 nM	–	–	–	–	CC(C)c1cnn2ccc(-c3ccnc(Nc4ccc(N5CCNCC5=O)cc4F)n3)cc12 [compound 224]	–
< 10 nM	< 10 nM	–	< 10 nM	< 100 nM	–	–	–	CC(C)c1cnn2ccc(-c3ccnc(Nc4ccc(N5CCNCC5=O)cc4)n3)cc12 [compound 226]	–
10 to 100 nM	< 10 nM	–	10 to 100 nM	–	–	–	–	Cc1nc2c(F)nc(-c3ccnc(Nc4ccc(S(N)(=O)=O)cc4)n3)cc2n1C(C)C [compound 288]	–
< 10 nM	< 10 nM	–	< 10 nM	–	–	–	–	CC(C)n1cnc2c(F)nc(-c3ccnc(Nc4ccc(N5CCC(C)(N)CC5=O)cc4F)n3)cc21 (centres unmarked) [compound 292]	–
< 10 nM	< 10 nM	–	10 to 100 nM	–	–	–	–	CC(C)n1cnc2c(F)nc(-c3ccnc(Nc4ccc(S(N)(=O)=O)cc4)n3)cc21 [compound 297]	–
